Measurements reported in BindingDB's records for doi:10.1016/j.bmcl.2009.04.023 (Banyu Pharmaceutical, 2009).

Biological target: Nociceptin receptor (Homo sapiens, UniProt P41146)
Experiment: In Vitro Binding Assay (IC50) and In Vitro Agonism/Antagonism Measurements (EC50/IC50)
Conditions: pH 7.4; 37 °C
Protocol: Compounds were tested for their inhibitory effects on ligand binding to the human ORL1 receptor. Bound and free radioligands are separated by filtration using a unifilter plate GF/C-96. The remaining radioactivity on the filter was counted using a TopCount-HTS (PerkinElmer). Specific binding of [125I][Tyr14]nociceptin is defined as the difference between total binding and nonspecific binding in the presence of 1 uM nociceptin. J-113397 was used as internal control across all assay plates for internal validation. IC50 values are calculated using GraphPad Prism. Agonist/antagonist activities were measured by the [35S]GTPgamma-S binding to proteins using membrane fractions of CHO cells expressing ORL1. Nonspecific binding is determined in the presence of 10 uM unlabeled GTPgammaS. Membrane-bound radioactivity is measured using a TopCount-HTS (PerkinElmer). Specific binding of [35S]GTPgammaS is determined as a difference between the control (in the presence of appropriate concentration of nociceptin), and the baseline (in the presence of DMSO instead of compound). EC50/IC50 values are calculated from % of specific binding in the presence of various concentration of the compound using GraphPad Prism 3.03.

Nociceptin receptor, sequence (P41146 whole entry): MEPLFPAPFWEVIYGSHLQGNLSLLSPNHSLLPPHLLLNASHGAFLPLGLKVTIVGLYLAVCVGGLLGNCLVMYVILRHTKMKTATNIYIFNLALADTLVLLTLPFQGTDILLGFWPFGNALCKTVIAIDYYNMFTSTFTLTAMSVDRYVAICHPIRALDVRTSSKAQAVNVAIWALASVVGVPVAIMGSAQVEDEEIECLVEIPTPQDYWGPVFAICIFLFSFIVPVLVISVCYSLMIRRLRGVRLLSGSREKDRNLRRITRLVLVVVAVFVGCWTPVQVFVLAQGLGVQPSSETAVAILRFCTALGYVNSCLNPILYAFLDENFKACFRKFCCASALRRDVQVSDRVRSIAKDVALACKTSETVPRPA

IC50 | SMILES
1.3 nM | CCN1CCN(c2cc3[nH]c(C(=O)[C@]4(C)CC[C@@](C)(O)CC4)nc3cc2Cl)CC1 [2-Cyclohexylcarbonylbenzimidazole, 7c]
2.4 nM | CCN1CCN(c2cc3[nH]c(C(=O)[C@]4(CC)CC[C@@](C)(O)CC4)nc3cc2Cl)CC1 [2-Cyclohexylcarbonylbenzimidazole, 7e]
38 nM | CCN1CCN(c2cc3[nH]c(C(=O)C4(C)CCC(=O)CC4)nc3cc2Cl)CC1 [2-Cyclohexylcarbonylbenzimidazole, 9]
5.3 nM | CCN1CCN(c2cc3[nH]c(C(=O)[C@]4(C)CC[C@@H](NC(=O)OC)CC4)nc3cc2C)CC1 [2-Cyclohexylcarbonylbenzimidazole, 7b]
7.5 nM | CCN1CCN(c2cc3[nH]c(C(=O)[C@]4(C)CC[C@@H](NC(=O)OC)CC4)nc3cc2Cl)CC1 [2-Cyclohexylcarbonylbenzimidazole, 7a]
